Source: publication PMC8645421 (Computational and Structural Biotechnology Journal, 2021)
Values belong to the molecule of their own block, whether it stands above or below them.

Legend:
Conditions in all cases: read-out: Km (mM) ^3; 50 mM Britton and Robinson buffer, pH 7.0, 30 °C
T0191 [1] = experiment: HPAEC-PAD; assay type: biochemical, uncultured Marinifilaceae bacterium
T0193 [2] = experiment: HPAEC-PAD; assay type: biochemical, uncultured Flavobacteriaceae bacterium
T0215 [3] = experiment: HPAEC-PAD; assay type: biochemical, uncultured Marinifilaceae bacterium
T0218 = experiment: pNP release at […] nm; assay type: biochemical, metagenome
T0217 = experiment: pNP release at […] nm; assay type: biochemical, metagenome
T0220 = experiment: pNP release at […] nm; assay type: biochemical, metagenome
T0216 = experiment: pNP release at […] nm; assay type: biochemical, uncultured Flavobacteriaceae bacterium
T0193 [4] = experiment: pNP release at […] nm; assay type: biochemical, uncultured Flavobacteriaceae bacterium
T0191 [5] = experiment: pNP release at […] nm; assay type: biochemical, uncultured Marinifilaceae bacterium
T0215 [6] = experiment: pNP release at […] nm; assay type: biochemical, uncultured Marinifilaceae bacterium
T0201 = experiment: pNP release at […] nm; assay type: biochemical, metagenome
T0199 = experiment: pNP release at […] nm; assay type: biochemical, metagenome
T0207 = experiment: pNP release at […] nm; assay type: biochemical, Osedax
T0204 = experiment: pNP release at […] nm; assay type: biochemical, metagenome

Compound: CC(=O)N[C@H]1[C@H]([C@H](O)[C@H](O)CO)O[C@@](O[C@H]2[C@@H](O)[C@@H](CO)O[C@@H](O[C@H]3[C@H](O)[C@@H](O)C(O)O[C@@H]3CO)[C@@H]2O)(C(=O)O)C[C@@H]1O (stereo partly drawn) [3-Sialyllactose]
Km (T0191 [1]): 0.031 ± 0.001 mM
Km (T0193 [2]): 0.082 ± 0.06 mM

Compound: CC(=O)N[C@H]1[C@H]([C@H](O)[C@H](O)CO)O[C@@](OC[C@H]2O[C@@H](O[C@H]3[C@H](O)[C@@H](O)C(O)O[C@@H]3CO)[C@H](O)[C@@H](O)[C@H]2O)(C(=O)O)C[C@@H]1O (stereo partly drawn) [6-Sialyllactose]
Km (T0191 [1]): 0.053 ± 0.001 mM

Compound: OC[C@H]1O[C@H](O[C@H]2[C@@H](O)[C@@H](CO)OC(O)[C@@H]2O)[C@H](O)[C@@H](O)[C@H]1O (stereo partly drawn) [Galactose-α-1,3-galactose]
Km (T0215 [3]): 0.048 ± 0.009 mM

Compound: CCCCCCCCCCCCC/C=C/[C@@H](O)[C@@H](N)CO[C@@H]1O[C@H](CO)[C@@H](O[C@@H]2O[C@H](CO)[C@H](O[C@H]3O[C@H](CO)[C@H](O)[C@H](O)[C@H]3O)[C@H](O)[C@H]2O)[C@H](O)[C@H]1O [Globotriaosylsphingosine]
Km (T0215 [3]): 0.058 ± 0.007 mM

Km (T0218): 0.326 ± 0.037 mM
Compound: CC(=O)N[C@H]1[C@H](Oc2ccc([N+](=O)[O-])cc2)O[C@H](CO)[C@H](O)[C@@H]1O [pNP-NAβGal]

Compound: CC(=O)N[C@H]1[C@H](Oc2ccc([N+](=O)[O-])cc2)O[C@H](CO)[C@@H](O)[C@@H]1O [pNP-NAβGlu]
Km (T0217): 0.028 ± 0.012 mM
Km (T0218): 0.134 ± 0.015 mM
Km (T0220): 0.042 ± 0.004 mM
Km (T0216): 0.025 ± 0.006 mM

Compound: CC(=O)N[C@H]1[C@H]([C@H](O)[C@H](O)CO)O[C@@](Oc2ccc([N+](=O)[O-])cc2)(C(=O)O)C[C@@H]1O [pNP-Neu5Ac]
Km (T0193 [4]): 0.55 ± 0.17 mM
Km (T0191 [5]): 0.18 ± 0.03 mM

Compound: O=[N+]([O-])c1ccc(O[C@H]2O[C@H](CO)[C@H](O)[C@H](O)[C@H]2O)cc1 [pNP-αGal]
Km (T0215 [6]): 0.062 ± 0.008 mM
Km (T0201): 6.22 ± 0.93 mM

Km (T0199): 1.08 ± 0.15 mM
Compound: C[C@@H]1O[C@@H](Oc2ccc([N+](=O)[O-])cc2)[C@H](O)[C@H](O)[C@H]1O [pNP-αRham]

Km (T0207): 0.0118 ± 0.003 mM
Compound: C[C@H]1O[C@@H](Oc2ccc([N+](=O)[O-])cc2)[C@H](O)[C@@H](O)[C@H]1O [pNP-β-Fuc]

Km (T0207): 0.199 ± 0.032 mM
Compound: O=[N+]([O-])c1ccc(O[C@@H]2O[C@H](CO)[C@H](O)[C@H](O)[C@H]2O)cc1 [pNP-βGal]

Km (T0204): 0.127 ± 0.036 mM
Compound: O=[N+]([O-])c1ccc(O[C@@H]2O[C@H](CO)[C@@H](O)[C@H](O)[C@@H]2O)cc1 [pNP-βMan]
